Measured values reported in patent US9067941B2, “Fused heterocyclic azaindane carboxamide CGRP receptor antagonists” (Merck Sharp & Dohme Corp., priority 2010, dated 2015).

Molecular target: T1, recombinant human CL receptor/RAMP1 (Homo sapiens, UniProt O60894+Q16602)
T1 construct: expressed in transfected cells; membranes
Assay: Recombinant receptor binding assay (125I-hCGRP displacement, membranes of HEK 293 cells)
Conditions: 10 pM 125I-hCGRP, 3 h at room temperature
Procedure: RECOMBINANT RECEPTOR: Human CL receptor (Genbank accession number L76380) was subcloned into the expression vector pIREShyg2 (BD Biosciences Clontech) as a 5′NheI and 3′ PmeI fragment. Human RAMP1 (Genbank accession number A3001014) was subcloned into the expression vector pIRESpuro2 (BD Biosciences Clontech) as a 5′NheI and 3′NotI fragment. HEK 293 cells (human embryonic kidney cells; ATCC #CRL-1573) were cultured in DMEM with 4.5 g/L glucose, 1 mM sodium pyruvate and 2 mM glutamine supplemented with 10% fetal bovine serum (FBS), 100 units/mL penicillin and 100 μg/mL streptomycin, and maintained at 37° C. and 95% humidity. Cells were subcultured by treatment with 0.25% trypsin with 0.1% EDTA in HBSS. Stable cell line generation was accomplished by co-transfecting 10 μg of DNA with 30 μg Lipofectamine 2000 (Invitrogen) in 75 cm^2 flasks. CL receptor and RAMP1 expression constructs were co-transfected in equal amounts. Twenty-four hours after transfection the cells were diluted and selective medium (growth medium+300 μg/mL hygromycin and 1 μg/mL puromycin) was added the following day. A clonal cell line was generated by single cell deposition utilizing a FACS Vantage SE (Becton Dickinson). Growth medium was adjusted to 150 μg/mL hygromycin and 0.5 μg/mL puromycin for cell propagation.
RECOMBINANT RECEPTOR BINDING ASSAY: Cells expressing recombinant human CL receptor/RAMP1 were washed with PBS and harvested in harvest buffer containing 50 mM HEPES, 1 mM EDTA and Complete™ protease inhibitors (Roche). The cell suspension was disrupted with a laboratory homogenizer and centrifuged at 48,000 g to isolate membranes. The pellets were resuspended in harvest buffer plus 250 mM sucrose and stored at −70° C. For binding assays, 20 μg of membranes were incubated in 1 mL binding buffer (10 mM HEPES, pH 7.4, 5 mM MgCl2, and 0.2% BSA) for 3 h at room temperature containing 10 pM ^125I-hCGRP (GE Healthcare) and antagonist. The assay was terminated by filtration through 96-well GFB glass fiber filter plates (PerkinElmer) that had been blocked with 0.05% polyethyleneimine. The filters were washed 3 times with ice-cold assay buffer (10 mM HEPES, pH 7.4, and 5 mM MgCl2). Scintillation fluid was added and the plates were counted on a Topcount (Packard). Non-specific binding was determined and the data analysis was carried out with the apparent dissociation constant (Ki) determined by using a non-linear least squares fitting the bound CPM data to the equation below:
[formula] Where Y is observed CPM bound, Ymax is total bound counts, Ymin is non specific bound counts, (Ymax−Ymin) is specific bound counts, % Imax is the maximum percent inhibition, % I min is the minimum percent inhibition, radiolabel is the probe, and the Kd is the apparent dissociation constant for the radioligand for the receptor as determined by hot saturation experiments.

T1 sequence (Q16602 23-461): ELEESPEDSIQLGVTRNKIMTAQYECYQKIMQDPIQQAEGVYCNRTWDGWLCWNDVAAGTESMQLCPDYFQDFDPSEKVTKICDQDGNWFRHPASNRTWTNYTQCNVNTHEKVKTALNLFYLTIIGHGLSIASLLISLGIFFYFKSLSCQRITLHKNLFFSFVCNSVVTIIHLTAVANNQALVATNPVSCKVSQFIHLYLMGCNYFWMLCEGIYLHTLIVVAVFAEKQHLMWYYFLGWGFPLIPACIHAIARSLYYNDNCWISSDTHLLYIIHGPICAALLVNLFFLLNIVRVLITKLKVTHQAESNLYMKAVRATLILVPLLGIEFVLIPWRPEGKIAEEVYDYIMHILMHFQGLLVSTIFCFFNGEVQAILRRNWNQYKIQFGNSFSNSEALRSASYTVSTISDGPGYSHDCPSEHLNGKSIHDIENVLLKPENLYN
T1 sequence (O60894 27-148): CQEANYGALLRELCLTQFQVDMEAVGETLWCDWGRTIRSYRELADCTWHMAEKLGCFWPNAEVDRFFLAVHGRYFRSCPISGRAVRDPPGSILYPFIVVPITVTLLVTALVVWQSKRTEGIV

| SMILES | Ki [nM] |
| --- | --- |
| O=C(N[C@H]1C[C@@H](c2cccc(F)c2F)Cn2c(CC(F)(F)F)cnc21)c1cnc2c(c1)C[C@@]1(C2)C(=O)Nc2ncccc21 [Example 1.2, (6S)—N-[(6S,8S)-6-(2,3-Difluorophenyl)-3-(2,2,2-trifluoroethyl)-5,6,7,8-tetrahydroimidazo[1,2-a]pyridin-8-yl]-2′-oxo-1′,2′,5,7-tetrahydrospiro[cyclopenta[b]pyridine-6,3′-pyrrolo[2,3-b]pyridine]-3-carboxamide] | 0.05 |
| COC(C)(C)c1cnc2n1C[C@H](c1cccc(F)c1F)C[C@@H]2NC(=O)c1cnc2c(c1)C[C@@]1(C2)C(=O)Nc2ncccc21 [Example 1.11, (6S)—N-[(6S,8S)-6-(2,3-Difluorophenyl)-3-(2-methoxypropan-2-yl)-5,6,7,8-tetrahydroimidazo[1,2-a]pyridin-8-yl]-2′-oxo-1′,2′,5,7-tetrahydrospiro[cyclopenta[b]pyridine-6,3′-pyrrolo[2,3-b]pyridine]-3-carboxamide] | 0.02 |
| O=C(N[C@H]1C[C@@H](c2cccc(F)c2F)Cn2c(CC(F)(F)F)nnc21)c1cnc2c(c1)C[C@@]1(C2)C(=O)Nc2ncccc21 [Example 1.24, (6S)—N-[(6S,8S)-6-(2,3-Difluorophenyl)-3-(2,2,2-trifluoroethyl)-5,6,7,8-tetrahydro[1,2,4]triazolo[4,3-a]pyridin-8-yl]-2′-oxo-1′,2′,5,7-tetrahydrospiro[cyclopenta[b]pyridine-6,3′-pyrrolo[2,3-b]pyridine]-3-carboxamide] | 0.19 |
| C[C@@H]1[C@H](c2ccccc2)C[C@H](NC(=O)c2cnc3c(c2)C[C@@]2(C3)C(=O)Nc3ncccc32)c2ncc(CC(F)(F)F)n21 [Example 1.25] | 0.06 |
| C[C@@H]1[C@H](c2ccccc2)C[C@H](NC(=O)c2cnc3c(c2)C[C@@]2(C3)C(=O)Nc3ncccc32)c2ncc(C(C)(C)O)n21 [Example 1.26, (6S)—N-[(5R,6S,8S)-3-(2-Hydroxypropan-2-yl)-5-methyl-6-phenyl-5,6,7,8-tetrahydroimidazo[1,2-a]pyridin-8-yl]-2′-oxo-1′,2′,5,7-tetrahydrospiro[cyclopenta[b]pyridine-6,3′-pyrrolo[2,3-b]pyridine]-3-carboxamide] | 0.14 |
| C[C@@H]1[C@H](c2ccccc2)C[C@H](NC(=O)c2cnc3c(c2)C[C@@]2(C3)C(=O)Nc3ncccc32)c2nnc(C3(C(F)(F)F)CC3)n21 [Example 1.27, (6S)—N-{(5R,6S,8S)-5-Methyl-6-phenyl-3-[1-(trifluoromethyl)cyclopropyl]-5,6,7,8-tetrahydro[1,2,4]triazolo[4,3-a]pyridin-8-yl}-2′-oxo-1′,2′,5,7-tetrahydrospiro[cyclopenta[b]pyridine-6,3′-pyrrolo[2,3-b]pyridine]-3-carboxamide] | 0.36 |
| C[C@@H]1[C@H](c2ccccc2)C[C@H](NC(=O)c2cnc3c(c2)C[C@@]2(C3)C(=O)Nc3ncncc32)c2ncc(C(C)(C)O)n21 [Example 2.1, (6S)—N-[(5R,6S,8S)-3-(2-Hydroxypropan-2-yl)-5-methyl-6-phenyl-5,6,7,8-tetrahydroimidazo[1,2-a]pyridin-8-yl]-6′-oxo-5,6′,7,7′-tetrahydrospiro[cyclopenta[b]pyridine-6,5′-pyrrolo[2,3-d]pyrimidine]-3-carboxamide] | 0.56 |
